Test results published in ChEMBL document CHEMBL3045021, “Synthesis, antibacterial, and antifungal activities of biolabile (E)-1-(4-morpholinophenyl)-3-aryl-prop-2-en-1-ones” (2009).
Calls of active or inactive are those of the source. The calls are words filed in the database; no cut-off is given here.

Experiments:
Assay type in all cases: functional
Salmonella typhi [1] = experiment: Antimicrobial activity against Salmonella enterica subsp. enterica serovar Typhi at 100 ppm after 24 hr by disk diffusion method
Vibrio cholerae [2] = experiment: Antimicrobial activity against Vibrio cholerae at 500 ppm after 24 hr by disk diffusion method; details: read-out: IZ
Vibrio cholerae [3] = experiment: Antimicrobial activity against Vibrio cholerae at 200 ppm after 24 hr by disk diffusion method; details: read-out: IZ
Vibrio cholerae [4] = experiment: Antimicrobial activity against Vibrio cholerae at 100 ppm after 24 hr by disk diffusion method; details: for zone of inhibition at 100 ppm: read-out: IZ
Streptococcus [5] = experiment: Antimicrobial activity against beta-hemolytic Streptococcus at 500 ppm after 24 hr by disk diffusion method; details: read-out: IZ
Streptococcus [6] = experiment: Antimicrobial activity against beta-hemolytic Streptococcus at 200 ppm after 24 hr by disk diffusion method; details: read-out: IZ
Streptococcus [7] = experiment: Antimicrobial activity against beta-hemolytic Streptococcus at 100 ppm after 24 hr by disk diffusion method; details: for zone of inhibition at 100 ppm: read-out: IZ
Staphylococcus aureus [8] = experiment: Antimicrobial activity against Staphylococcus aureus at 500 ppm after 24 hr by disk diffusion method; details: read-out: IZ
Staphylococcus aureus [9] = experiment: Antimicrobial activity against Staphylococcus aureus at 200 ppm after 24 hr by disk diffusion method; details: read-out: IZ
Staphylococcus aureus [10] = experiment: Antimicrobial activity against Staphylococcus aureus at 100 ppm after 24 hr by disk diffusion method; details: for zone of inhibition at 100 ppm: read-out: IZ
Nannizzia gypsea [11] = experiment: Antimicrobial activity against Microsporum gypseum at 100 ppm after 72 to 96 hr by disk diffusion method; details: for zone of inhibition at 100 ppm: read-out: IZ
Rhizopus [12] = experiment: Antimicrobial activity against Rhizopus at 500 ppm after 72 to 96 hr by disk diffusion method; details: read-out: IZ
Rhizopus [13] = experiment: Antimicrobial activity against Rhizopus at 200 ppm after 72 to 96 hr by disk diffusion method; details: for zone of inhibition at 200 ppm: read-out: IZ
Rhizopus [14] = experiment: Antimicrobial activity against Rhizopus at 100 ppm after 72 to 96 hr by disk diffusion method
Mucor [15] = experiment: Antimicrobial activity against Mucor at 500 ppm after 72 to 96 hr by disk diffusion method; details: read-out: IZ
Mucor [16] = experiment: Antimicrobial activity against Mucor at 200 ppm after 72 to 96 hr by disk diffusion method; details: read-out: IZ
Mucor [17] = experiment: Antimicrobial activity against Mucor at 100 ppm after 72 to 96 hr by disk diffusion method; details: for zone of inhibition at 100 ppm: read-out: IZ
Aspergillus flavus [18] = experiment: Antimicrobial activity against Aspergillus flavus at 500 ppm after 72 to 96 hr by disk diffusion method; details: read-out: IZ
Aspergillus flavus [19] = experiment: Antimicrobial activity against Aspergillus flavus at 200 ppm after 72 to 96 hr by disk diffusion method; details: read-out: IZ
Aspergillus flavus [20] = experiment: Antimicrobial activity against Aspergillus flavus at 100 ppm after 72 to 96 hr by disk diffusion method; details: for zone of inhibition at 100 ppm: read-out: IZ
Pseudomonas [21] = experiment: Antimicrobial activity against Pseudomonas at 500 ppm after 24 hr by disk diffusion method; details: read-out: IZ
Pseudomonas [22] = experiment: Antimicrobial activity against Pseudomonas at 200 ppm after 24 hr by disk diffusion method; details: read-out: IZ
Pseudomonas [23] = experiment: Antimicrobial activity against Pseudomonas at 100 ppm after 24 hr by disk diffusion method; details: for zone of inhibition at 100 ppm: read-out: IZ
Klebsiella pneumoniae [24] = experiment: Antimicrobial activity against Klebsiella pneumoniae at 500 ppm after 24 hr by disk diffusion method; details: read-out: IZ
Klebsiella pneumoniae [25] = experiment: Antimicrobial activity against Klebsiella pneumoniae at 200 ppm after 24 hr by disk diffusion method; details: read-out: IZ
Klebsiella pneumoniae [26] = experiment: Antimicrobial activity against Klebsiella pneumoniae at 100 ppm after 24 hr by disk diffusion method; details: for zone of inhibition at 100 ppm: read-out: IZ
Escherichia coli [27] = experiment: Antimicrobial activity against Escherichia coli at 500 ppm after 24 hr by disk diffusion method; details: read-out: IZ
Escherichia coli [28] = experiment: Antimicrobial activity against Escherichia coli at 200 ppm after 24 hr by disk diffusion method; details: read-out: IZ
Escherichia coli [29] = experiment: Antimicrobial activity against Escherichia coli at 100 ppm after 24 hr by disk diffusion method
Shigella flexneri [30] = experiment: Antimicrobial activity against Shigella flexneri at 500 ppm after 24 hr by disk diffusion method; details: read-out: IZ
Nannizzia gypsea [31] = experiment: Antimicrobial activity against Microsporum gypseum at 500 ppm after 72 to 96 hr by disk diffusion method; details: read-out: IZ
Nannizzia gypsea [32] = experiment: Antimicrobial activity against Microsporum gypseum at 200 ppm after 72 to 96 hr by disk diffusion method; details: for zone of inhibition at 200 ppm: read-out: IZ
Shigella flexneri [33] = experiment: Antimicrobial activity against Shigella flexneri at 200 ppm after 24 hr by disk diffusion method; details: read-out: IZ
Shigella flexneri [34] = experiment: Antimicrobial activity against Shigella flexneri at 100 ppm after 24 hr by disk diffusion method; details: for zone of inhibition at 100 ppm: read-out: IZ
Salmonella typhi [35] = experiment: Antimicrobial activity against Salmonella enterica subsp. enterica serovar Typhi at 500 ppm after 24 hr by disk diffusion method; details: read-out: IZ
Salmonella typhi [36] = experiment: Antimicrobial activity against Salmonella enterica subsp. enterica serovar Typhi at 200 ppm after 24 hr by disk diffusion method; details: read-out: IZ

Compound | zone of inhibition at 500 ppm (Vibrio cholerae [2]) [mm] | zone of inhibition at 200 ppm (Vibrio cholerae [3]) [mm] | zone of inhibition at 500 ppm (Streptococcus [5]) [mm] | zone of inhibition at 200 ppm (Streptococcus [6]) [mm] | zone of inhibition at 500 ppm (Staphylococcus aureus [8]) [mm] | zone of inhibition at 200 ppm (Staphylococcus aureus [9]) [mm] | zone of inhibition at 500 ppm (Rhizopus [12]) [mm] | zone of inhibition at 500 ppm (Mucor [15]) [mm] | zone of inhibition at 200 ppm (Mucor [16]) [mm] | zone of inhibition at 500 ppm (Aspergillus flavus [18]) [mm] | zone of inhibition at 200 ppm (Aspergillus flavus [19]) [mm] | zone of inhibition at 500 ppm (Pseudomonas [21]) [mm] | zone of inhibition at 200 ppm (Pseudomonas [22]) [mm] | zone of inhibition at 500 ppm (Klebsiella pneumoniae [24]) [mm] | zone of inhibition at 200 ppm (Klebsiella pneumoniae [25]) [mm] | zone of inhibition at 500 ppm (Escherichia coli [27]) [mm] | zone of inhibition at 200 ppm (Escherichia coli [28]) [mm] | zone of inhibition at 500 ppm (Shigella flexneri [30]) [mm] | zone of inhibition at 500 ppm (Nannizzia gypsea [31]) [mm] | zone of inhibition at 200 ppm (Shigella flexneri [33]) [mm] | further results
Cc1ccc(/C=C/C(=O)c2ccc(N3CCOCC3)cc2)cc1 | 17 | 12 | 30 | 17 | 30 | 17 | 17 | 17 | 12 | 17 | 12 | 30 | 22 | 30 | 17 | 17 | 12 | 30 | 17 | 17 | zone of inhibition at 100 ppm (Salmonella typhi [1]; read-out: IZ): 12 mm; zone of inhibition at 100 ppm (Vibrio cholerae [4]): 12 mm; zone of inhibition at 100 ppm (Streptococcus [7]): 12 mm; inhibition zone (IZ) (Staphylococcus aureus [10]): inactive; zone of inhibition at 100 ppm (Nannizzia gypsea [11]): 12 mm; inhibition zone (IZ) (Rhizopus [13]): inactive; zone of inhibition at 100 ppm (Rhizopus [14]; read-out: IZ): 12 mm; zone of inhibition at 100 ppm (Mucor [17]): 12 mm; zone of inhibition at 100 ppm (Aspergillus flavus [20]): 12 mm; zone of inhibition at 100 ppm (Pseudomonas [23]): 17 mm; zone of inhibition at 100 ppm (Klebsiella pneumoniae [26]): 12 mm; inhibition zone (IZ) (Escherichia coli [29]): inactive; inhibition zone (IZ) (Nannizzia gypsea [32]): inactive; zone of inhibition at 100 ppm (Shigella flexneri [34]): 12 mm; zone of inhibition at 500 ppm (Salmonella typhi [35]): 17 mm; zone of inhibition at 200 ppm (Salmonella typhi [36]): 17 mm
O=C(/C=C/c1ccc(Cl)cc1)c1ccc(N2CCOCC2)cc1 | 17 | 17 | 22 | 17 | 22 | 17 | 30 | 22 | 17 | 30 | 22 | 30 | 22 | 30 | 22 | 17 | 17 | 22 | 22 | 17 | inhibition zone (IZ) (Salmonella typhi [1]): inactive; zone of inhibition at 100 ppm (Vibrio cholerae [4]): 12 mm; zone of inhibition at 100 ppm (Streptococcus [7]): 12 mm; zone of inhibition at 100 ppm (Staphylococcus aureus [10]): 12 mm; zone of inhibition at 100 ppm (Nannizzia gypsea [11]): 12 mm; zone of inhibition at 200 ppm (Rhizopus [13]): 17 mm; inhibition zone (IZ) (Rhizopus [14]): inactive; zone of inhibition at 100 ppm (Mucor [17]): 12 mm; inhibition zone (IZ) (Aspergillus flavus [20]): inactive; zone of inhibition at 100 ppm (Pseudomonas [23]): 17 mm; zone of inhibition at 100 ppm (Klebsiella pneumoniae [26]): 12 mm; zone of inhibition at 100 ppm (Escherichia coli [29]; read-out: IZ): 12 mm; zone of inhibition at 200 ppm (Nannizzia gypsea [32]): 17 mm; zone of inhibition at 100 ppm (Shigella flexneri [34]): 17 mm; zone of inhibition at 500 ppm (Salmonella typhi [35]): 22 mm; zone of inhibition at 200 ppm (Salmonella typhi [36]): 17 mm
O=C(/C=C/c1cccc([N+](=O)[O-])c1)c1ccc(N2CCOCC2)cc1 | 17 | 12 | 22 | 17 | 22 | 17 | 22 | 22 | 17 | 22 | 17 | 30 | 22 | 22 | 17 | 22 | 17 | 22 | 22 | 17 | inhibition zone (IZ) (Salmonella typhi [1]): inactive; inhibition zone (IZ) (Vibrio cholerae [4]): inactive; inhibition zone (IZ) (Streptococcus [7]): inactive; inhibition zone (IZ) (Staphylococcus aureus [10]): inactive; zone of inhibition at 100 ppm (Nannizzia gypsea [11]): 12 mm; zone of inhibition at 200 ppm (Rhizopus [13]): 17 mm; inhibition zone (IZ) (Rhizopus [14]): inactive; inhibition zone (IZ) (Mucor [17]): inactive; zone of inhibition at 100 ppm (Aspergillus flavus [20]): 12 mm; inhibition zone (IZ) (Pseudomonas [23]): inactive; inhibition zone (IZ) (Klebsiella pneumoniae [26]): inactive; inhibition zone (IZ) (Escherichia coli [29]): inactive; zone of inhibition at 200 ppm (Nannizzia gypsea [32]): 17 mm; zone of inhibition at 100 ppm (Shigella flexneri [34]): 12 mm; zone of inhibition at 500 ppm (Salmonella typhi [35]): 17 mm; zone of inhibition at 200 ppm (Salmonella typhi [36]): 12 mm
COc1ccc(/C=C/C(=O)c2ccc(N3CCOCC3)cc2)cc1 | 17 | 12 | 30 | 22 | 30 | 22 | 17 | 17 | 12 | 17 | 12 | 30 | 22 | 30 | 17 | 17 | 12 | 22 | 17 | 17 | inhibition zone (IZ) (Salmonella typhi [1]): inactive; inhibition zone (IZ) (Vibrio cholerae [4]): inactive; zone of inhibition at 100 ppm (Streptococcus [7]): 12 mm; zone of inhibition at 100 ppm (Staphylococcus aureus [10]): 12 mm; zone of inhibition at 100 ppm (Nannizzia gypsea [11]): 12 mm; zone of inhibition at 200 ppm (Rhizopus [13]): 12 mm; inhibition zone (IZ) (Rhizopus [14]): inactive; inhibition zone (IZ) (Mucor [17]): inactive; zone of inhibition at 100 ppm (Aspergillus flavus [20]): 12 mm; zone of inhibition at 100 ppm (Pseudomonas [23]): 12 mm; inhibition zone (IZ) (Klebsiella pneumoniae [26]): inactive; inhibition zone (IZ) (Escherichia coli [29]): inactive; zone of inhibition at 200 ppm (Nannizzia gypsea [32]): 12 mm; inhibition zone (IZ) (Shigella flexneri [34]): inactive; zone of inhibition at 500 ppm (Salmonella typhi [35]): 17 mm; zone of inhibition at 200 ppm (Salmonella typhi [36]): 12 mm
O=C(/C=C/c1ccccc1)c1ccc(N2CCOCC2)cc1 | 17 | 17 | 22 | 17 | 22 | 17 | 17 | 17 | 12 | 17 | 17 | 30 | 22 | 22 | 12 | 17 | 17 | 22 | 17 | 17 | inhibition zone (IZ) (Salmonella typhi [1]): inactive; inhibition zone (IZ) (Vibrio cholerae [4]): inactive; zone of inhibition at 100 ppm (Streptococcus [7]): 12 mm; zone of inhibition at 100 ppm (Staphylococcus aureus [10]): 12 mm; inhibition zone (IZ) (Nannizzia gypsea [11]): inactive; zone of inhibition at 200 ppm (Rhizopus [13]): 12 mm; inhibition zone (IZ) (Rhizopus [14]): inactive; inhibition zone (IZ) (Mucor [17]): inactive; zone of inhibition at 100 ppm (Aspergillus flavus [20]): 12 mm; zone of inhibition at 100 ppm (Pseudomonas [23]): 17 mm; zone of inhibition at 100 ppm (Klebsiella pneumoniae [26]): 12 mm; inhibition zone (IZ) (Escherichia coli [29]): inactive; zone of inhibition at 200 ppm (Nannizzia gypsea [32]): 12 mm; inhibition zone (IZ) (Shigella flexneri [34]): inactive; zone of inhibition at 500 ppm (Salmonella typhi [35]): 17 mm; zone of inhibition at 200 ppm (Salmonella typhi [36]): 12 mm
